Laboratory results: patent US6875768B1, “Phthalamide derivatives, intermediates in the production thereof, and agricultural/horticultural insecticides and method for using the same” (Nihon Nohyako Co., Ltd., priority 1999, dated 2005)

Experiments:
[1] = system: Common cutworm (Spodoptera litura); type: in vivo; settings: 500 ppm; cabbage leaf immersed about 30 seconds; second-instar larvae; eight days after the inoculation; 25° C.
Source text: Insecticidal Effect on Common cutworm (Spodoptera litura)

[2] = system: rice leafroller (Cnaphalocrosis medinalis); settings: 500 ppm; rice lamina immersed about 30 seconds; third-instar larvae; four days after the inoculation; 25° C., humidity 70%
Protocol: Insecticidal effect on rice leafroller (Cnaphalocrosis medinalis)
After air-dryness, the lamina was placed in a plastic Petri dish with a diameter of 9 cm whose bottom had been covered with a wetted filter paper. The lamina was inoculated with third-instar larvae of rice leafroller, after which the dish was allowed to stand in a room thermostatted at 25° C. and having a humidity of 70%. Four days after the inoculation, the dead and alive were counted and the insecticidal effect was judged according to the criterion shown in Test Example 1. The test was carried out with triplicate groups of 10 insects.

[3] = system: diamond back moth (Plutella xylostella); type: in vivo; settings: 1,000 ppm; Chinese cabbage seedling with eggs immersed about 30 seconds; counted six days after the immersion; 25° C.
Source text: Insecticidal effect on diamond back moth (Plutella xylostella)
Adult diamond back moths were released and allowed to oviposit on a Chinese cabbage seedling. […] Six days after the immersion, the hatched insects were counted. […] [formula] Criterion • A - - - Mortality 100% • B - - - Mortality 99-90% • C - - - Mortality 89-80% • D - - - Mortality 79-50%

Measured: insecticidal effect (activity ranking by mortality)

CC(C)NC(=O)c1ccccc1C(=O)Nc1ncc(C(F)(F)F)cc1Cl [Q26-1]
B or higher: [1] | [2] | [3]

CCN(CC)C(=O)c1c(I)cccc1C(=O)Nc1ncc(C(F)(F)C(F)(F)F)cc1C [Q26-29]
B or higher: [1] | [2] | [3]

CCN(CC)C(=O)c1c(I)cccc1C(=O)Nc1ncc(C(F)(F)C(F)(F)C(F)(F)F)cc1C [Q26-30]
B or higher: [1] | [2] | [3]

CCN(CC)C(=O)c1c(I)cccc1C(=O)Nc1ncc(C(F)(C(F)(F)F)C(F)(F)F)cc1C [Q26-31]
B or higher: [1] | [2] | [3]

CCN(CC)C(=O)c1c(I)cccc1C(=O)Nc1ccc(Cl)cn1 [Q26-32]
B or higher: [1] | [2] | [3]

CCN(CC)C(=O)c1c(I)cccc1C(=O)Nc1ccc(Br)cn1 [Q26-33]
B or higher: [1] | [2] | [3]

CC(C)NC(=O)c1c(Cl)cccc1C(=O)Nc1ccc(Oc2ccc(Br)cc2)nc1 [Q27-29]
B or higher: [1] | [2] | [3]

CC(C)NC(=O)c1c(Cl)cccc1C(=O)Nc1ccc(Oc2ccc(Cl)cc2Cl)nc1 [Q27-30]
B or higher: [1] | [2] | [3]

CC(C)NC(=O)c1c(Cl)cccc1C(=O)Nc1cnccc1SC(C)C [Q27-31]
B or higher: [1] | [2] | [3]

CC(C)CSc1ccncc1NC(=O)c1cccc(Cl)c1C(=O)NC(C)C [Q27-32]
B or higher: [1] | [2] | [3]

Cc1cc(Cl)ncc1NC(=O)c1cccc(Cl)c1C(=O)NC(C)C [Q27-81]
B or higher: [1] | [2] | [3]

Cc1cc(Oc2ccc(Br)cc2)ncc1NC(=O)c1cccc(Cl)c1C(=O)NC(C)C [Q27-98]
B or higher: [1] | [2] | [3]

CC(C)NC(=O)c1cccc(Cl)c1C(=O)Nc1ccc(Oc2ccc(Br)cc2)nc1 [Q27-124]
B or higher: [1] | [2] | [3]

CC(C)NC(=O)c1cccc(Cl)c1C(=O)Nc1ccc(Oc2ccc(Cl)cc2Cl)nc1 [Q27-125]
B or higher: [1] | [2] | [3]

CC(C)NC(=O)c1cccc(Cl)c1C(=O)Nc1ccc(SC(C)C)nc1 [Q27-126]
B or higher: [1] | [2] | [3]

CC(C)CSc1ccc(NC(=O)c2c(Cl)cccc2C(=O)NC(C)C)cn1 [Q27-127]
B or higher: [1] | [2] | [3]

Cc1cc(Cl)ncc1NC(=O)c1c(Cl)cccc1C(=O)NC(C)C [Q27-128]
B or higher: [1] | [2] | [3]

CCN(CC)C(=O)c1c(I)cccc1C(=O)Nc1ccc(C(F)(F)C(F)(F)C(F)(F)F)nc1Cl [Q27-129]
B or higher: [1] | [2] | [3]

CCN(CC)C(=O)c1c(I)cccc1C(=O)Nc1ccc(Cl)nc1 [Q27-130]
B or higher: [1] | [2] | [3]

CCN(CC)C(=O)c1c(I)cccc1C(=O)Nc1ccc(C(F)(F)C(F)(F)C(F)(F)F)nc1 [Q27-131]
B or higher: [1] | [2] | [3]

CCN(CC)C(=O)c1c(I)cccc1C(=O)Nc1ccc(Oc2ccc(Br)cc2)nc1 [Q27-132]
B or higher: [1] | [2] | [3]

CC(C)NC(=O)c1c(I)cccc1C(=O)Nc1ccc(Cl)nc1 [Q27-133]
B or higher: [1] | [2] | [3]

CC(C)NC(=O)c1c(I)cccc1C(=O)Nc1ccc(C(F)(F)C(F)(F)F)nc1 [Q27-134]
B or higher: [1] | [2] | [3]

CC(C)NC(=O)c1c(I)cccc1C(=O)Nc1ccc(C(F)(F)C(F)(F)C(F)(F)F)nc1 [Q27-135]
B or higher: [1] | [2] | [3]

CC(C)NC(=O)c1c(I)cccc1C(=O)Nc1ccc(C(F)(C(F)(F)F)C(F)(F)F)nc1 [Q27-136]
B or higher: [1] | [2] | [3]

Cc1cc(C(F)(C(F)(F)F)C(F)(F)F)ncc1NC(=O)c1cccc(I)c1C(=O)NC(C)C [Q27-137]
B or higher: [1] | [2] | [3]

Cc1nc(C(F)(C(F)(F)F)C(F)(F)F)ccc1NC(=O)c1cccc(I)c1C(=O)NC(C)C [Q27-138]
B or higher: [1] | [2] | [3]

CC(C)(C)NC(=O)c1c(I)cccc1C(=O)Nc1ccc(C(F)(C(F)(F)F)C(F)(F)F)nc1 [Q27-139]
B or higher: [1] | [2] | [3]

CC(C)(C)NC(=O)c1c(I)cccc1C(=O)Nc1ccc(C(F)(F)C(F)(F)F)nc1 [Q27-140]
B or higher: [1] | [2] | [3]

CC(C)(C)NC(=O)c1c(I)cccc1C(=O)Nc1ccc(C(F)(F)C(F)(F)C(F)(F)F)nc1 [Q27-141]
B or higher: [1] | [2] | [3]

Cc1cc(C(F)(C(F)(F)F)C(F)(F)F)ncc1NC(=O)c1cccc(I)c1C(=O)NC(C)(C)C [Q27-142]
B or higher: [1] | [2] | [3]
